Biological target: GST tagged truncated human mutant G2019S LRRK2 (Homo sapiens (Human), UniProt Q5S007, G2019S)
Assay: LRRK2 Km ATP LanthaScreen Assay
Assay type: biochemical
Conditions: G2019S LRRK2, 134 μM ATP (Km ATP), mean values; for IC50: read-out: LRRK2 pIC50 (converted)
Description: General Experimental Information: • Unless otherwise noted, all reactions are magnetically stirred. Unless otherwise noted, when diethyl ether is used in the experiments described below, it is Fisher ACS certified material and is stabilized with BHT. Unless otherwise noted, “concentrated” and/or “solvent removed under reduced pressure” means evaporating the solvent from a solution or mixture using a rotary evaporator or vacuum pump. Unless otherwise noted, flash chromatography is carried out on a Teledyne Isco (Lincoln, NE), Analogix (Burlington, WI), or Biotage (Stockholm, SWE) automated chromatography system using a commercially available cartridge as the column. Columns may be purchased from Teledyne Isco, Analogix, Biotage, Varian (Palo Alto, CA), or Supelco (Bellefonte, PA) and are usually filled with silica gel as the stationary phase. Reverse phase prep-HPLC conditions, where used, can be found at the end of each experimental section. Aqueous solutions were concentrated on a Genevac (Ipswich, ENG) or by freeze-drying/lyophilization. Unless otherwise noted, all LRRK2 pIC50 data presented in tables refers to the LRRK2 G2019S Km ATP LanthaScreen™ assay (Life Technologies Corp., Carlsbad, CA) that is described in the Biological Assay section.
The pIC50 values reported herein were measured as follows.
Biological Assay: LRRK2 Km ATP LanthaScreen™ Assay
Compound potency against LRRK2 kinase activity was determined using LanthaScreen™ technology from Life Technologies Corporation (Carlsbad, CA) using a GST20 tagged truncated human mutant G2019S LRRK2 in the presence of the fluorescein-labeled peptide substrate LRRKtide® (LRRK2 phosphorylated ezrin/radixin/moesin (ERM)), also from Life Technologies. The data presented for the Km ATP LanthaScreen™ Assay represents mean IC50 values based on several test results and may have reasonable deviations depending on the specific conditions and reagents used. Km is the Michaelis constant of an enzyme and is defined as the concentration of native substrate (ATP for a kinase) which permits the enzyme to achieve half Vmax (Vmax=rate of reaction when the enzyme is saturated with substrate). IC50 (half-maximal inhibitory concentration) represents the concentration of inhibitor required to inhibit LRRK2 kinase activity by 50%. Assays were performed in the presence of 134 μM ATP (Km ATP). Upon completion, the assay was stopped, and phosphorylated substrate detected with a terbium (Tb)-labeled anti-pERM antibody (cat. no. PV4898). The compound dose response was prepared by diluting a 10 mM stock of compound to a maximum concentration of 9.99 μM in 100% DMSO, followed by custom fold serial dilution in DMSO nine times. 20 nL of each dilution was spotted via a Labcyte Echo onto a 384-well black-sided plate (Corning 3575) followed by 15 μl of a 1.25 nM enzyme solution in 1× assay buffer (50 mM Tris pH 8.5, 10 mM MgCl2, 0.01% Brij-35, 1 mM EGTA, 2 mM dithiothreitol, 0.05 mM sodium orthovanadate). Following a 15-minute incubation period at RT, the kinase reaction was started with the addition of 5 μl of 400 nM fluorescein-labeled LRRKtide® (LRRK2 phosphorylated ezrin/radixin/moesin (ERM)) peptide substrate and 134 μM ATP solution in 1× assay buffer. The reaction was allowed to progress at ambient temperature for 90 minutes. The reaction was then stopped by the addition of 20 μl of TR-FRET Dilution Buffer (Life Technologies, Carlsbad, CA) containing 2 nM Tb-labeled anti-phospho LRRKtide® (LRRK2 phosphorylated ezrin/radixin/moesin (ERM)) antibody and 10 mM EDTA (Life Technologies, Carlsbad, CA). After an incubation period of 1 h at RT, the plate was read on an EnVision® multimode plate reader (Perkin Elmer, Waltham, MA) with an excitation wavelength of 337 nm (Laser) and a reading emission at both 520 and 495 nm. Compound IC50 values were interpolated from nonlinear regression best-fits of the log of the final compound concentration, plotted as a function of the 520/495-nm emission ratio using activity base “Abase”). […]

Sequence of GST tagged truncated human mutant G2019S LRRK2 (Q5S007 970-2527 G2019S): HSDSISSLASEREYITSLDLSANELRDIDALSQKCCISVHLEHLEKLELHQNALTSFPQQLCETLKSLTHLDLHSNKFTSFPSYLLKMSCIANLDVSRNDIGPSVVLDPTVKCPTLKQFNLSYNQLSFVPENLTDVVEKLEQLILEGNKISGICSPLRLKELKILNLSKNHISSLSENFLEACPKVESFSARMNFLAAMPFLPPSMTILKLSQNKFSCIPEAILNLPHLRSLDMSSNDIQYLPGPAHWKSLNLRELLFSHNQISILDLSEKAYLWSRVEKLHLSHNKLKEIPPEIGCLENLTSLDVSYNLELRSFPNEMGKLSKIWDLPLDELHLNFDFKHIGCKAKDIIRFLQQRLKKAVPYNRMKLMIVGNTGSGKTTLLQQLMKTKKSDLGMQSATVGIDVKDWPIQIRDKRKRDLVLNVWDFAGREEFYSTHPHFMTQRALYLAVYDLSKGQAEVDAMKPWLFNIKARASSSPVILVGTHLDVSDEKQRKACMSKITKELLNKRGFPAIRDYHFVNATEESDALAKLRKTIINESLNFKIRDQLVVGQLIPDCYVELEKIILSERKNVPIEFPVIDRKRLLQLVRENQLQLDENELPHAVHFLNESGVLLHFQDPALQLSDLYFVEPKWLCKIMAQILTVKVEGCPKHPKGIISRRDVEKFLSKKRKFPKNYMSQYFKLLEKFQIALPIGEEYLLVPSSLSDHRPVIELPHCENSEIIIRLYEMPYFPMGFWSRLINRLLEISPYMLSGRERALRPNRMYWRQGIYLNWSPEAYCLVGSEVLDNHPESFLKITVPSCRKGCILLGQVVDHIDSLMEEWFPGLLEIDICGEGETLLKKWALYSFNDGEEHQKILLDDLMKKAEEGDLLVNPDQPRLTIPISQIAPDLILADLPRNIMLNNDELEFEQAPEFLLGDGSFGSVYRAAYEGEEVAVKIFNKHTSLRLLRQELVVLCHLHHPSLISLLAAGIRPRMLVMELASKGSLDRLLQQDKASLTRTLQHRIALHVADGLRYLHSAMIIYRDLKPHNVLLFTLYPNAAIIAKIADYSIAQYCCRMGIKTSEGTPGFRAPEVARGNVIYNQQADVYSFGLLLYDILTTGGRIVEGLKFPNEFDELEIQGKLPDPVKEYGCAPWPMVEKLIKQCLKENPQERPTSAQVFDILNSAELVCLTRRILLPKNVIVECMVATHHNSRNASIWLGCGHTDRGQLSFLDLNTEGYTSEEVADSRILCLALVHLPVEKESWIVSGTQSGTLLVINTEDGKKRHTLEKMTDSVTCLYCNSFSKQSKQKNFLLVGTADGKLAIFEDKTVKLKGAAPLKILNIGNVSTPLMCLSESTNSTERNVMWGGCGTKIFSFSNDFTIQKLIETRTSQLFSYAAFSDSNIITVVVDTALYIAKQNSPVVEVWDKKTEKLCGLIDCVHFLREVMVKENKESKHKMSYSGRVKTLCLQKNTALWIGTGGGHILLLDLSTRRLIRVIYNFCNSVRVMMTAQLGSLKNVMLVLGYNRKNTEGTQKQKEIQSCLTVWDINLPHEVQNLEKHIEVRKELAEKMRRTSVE

SMILES | LRRK2 pIC50 | IC50 [nM]
CC1(n2ncc(Nc3ncc4cc(Cl)c([C@H]5CCNC[C@@H]5F)cc4n3)c2Cl)CC1 (single isomer, unassigned) [Ex-4.92, (3S,4S) or (3R,4R) 6-chloro-N-[5-chloro-1-(1-methylcyclopropyl)-1H-pyrazol-4-yl]-7-(3-fluoropiperidin-4-yl)quinazolin-2-amine] | >9.20 | –
Cc1c(Nc2ncc3cc(Cl)c(C4CCN(C5COCC5C#N)CC4)cc3n2)cnn1C1CC1 (single isomer, unassigned) [Ex-2.49, (3S,4S) or (3R,4R) or (3S,4R) or (3R,4S) 4-(4-{6-chloro-2-[(1-cyclopropyl-5-methyl-1H-pyrazol-4-yl)amino]quinazolin-7-yl}piperidin-1-yl)oxolane-3-carbonitrile] | 8.88 | –
Cc1cc(Nc2ncc3cc(Cl)c(C4CCN(C5COCC5O)CC4F)cc3n2)n(C)n1 (single isomer, unassigned) [Ex-4.235, (3S,4S)(3S,4S) or (3S,4S)(3R,4R) or (3R,4R)(3S,4S) or (3R,4R)(3R,4R) 4-(4-{6-chloro-2-[(1,3-dimethyl-1H-pyrazol-5-yl)amino]quinazolin-7-yl}-3-fluoropiperidin-1-yl)oxolan-3-ol] | 8.84 | –
F[C@@H]1CN(C2COC2)CC[C@H]1c1cc2nc(Nc3cnn(C4CC4(F)F)c3Cl)ncc2cc1Cl (single isomer, unassigned) [Ex-8.29, (R)(3S,4S) or (S)(3S,4S) or (R)(3R,4R) or (S)(3R,4R) 6-chloro-N-[5-chloro-1-(2,2-difluorocyclopropyl)-1H-pyrazol-4-yl]-7-[3-fluoro-1-(oxetan-3-yl)piperidin-4-yl]quinazolin-2-amine] | 8.88 | –
Cc1cc2cnc(Nc3cnn(C4CC4)c3Cl)nc2cc1C1CCC(C)(O)CC1 (stereo not drawn) [Ex-2.64, cis- or trans-4-{2-[(5-chloro-1-cyclopropyl-1H-pyrazol-4-yl)amino]-6-methylquinazolin-7-yl}-1-methylcyclohexan-1-ol] | 9.02 | –
CC1CC(c2cc3nc(Nc4cnn(C5CC5)c4Cl)ncc3cc2Cl)CC(C)N1C1COC1 (stereo not drawn) [Ex-4.118, cis or trans 6-chloro-N-(5-chloro-1-cyclopropyl-1H-pyrazol-4-yl)-7-(2,6-dimethyl-1-(oxetan-3-yl)piperidin-4-yl)quinazolin-2-amine] | 8.46 | –
CC1(n2ncc(Nc3ncc4cc(Cl)c(C5CCNCC5)cc4n3)c2Cl)CC1 [Ex-8.9, 6-chloro-N-[5-chloro-1-(1-methylcyclopropyl)-1H-pyrazol-4-yl]-7-(piperidin-4-yl)quinazolin-2-amine] | >9.20 | –
CN1CC[C@H](c2cc3nc(Nc4cnn(CC(C)(C)O)c4Cl)ncc3cc2Cl)[C@@H](F)C1 (single isomer, unassigned) [Ex-4.23, (3S,4S) or (3R,4R) 1-(5-chloro-4-{[6-chloro-7-(3-fluoro-1-methylpiperidin-4-yl)quinazolin-2-yl]amino}-1H-pyrazol-1-yl)-2-methylpropan-2-ol] | 9.08 | –
Cc1c(Nc2ncc3cc(Cl)c(C4CCN(C[C@@H](O)c5cc(F)cc(F)c5)CC4)cc3n2)cnn1C1CC1 [Ex-4.197, (1S)-2-(4-{6-chloro-2-[(1-cyclopropyl-5-methyl-1H-pyrazol-4-yl)amino]quinazolin-7-yl}piperidin-1-yl)-1-(3,5-difluorophenyl)ethan-1-ol] | 8.76 | –
Cc1c(Nc2ncc3cc(Cl)c(C4CCN(C(=O)[C@@H](C)O)C4)cc3n2)cnn1C1CC1 (single isomer, unassigned) [Ex-4.187, (2R)(3S) or (2R)(3R) 1-(3-{6-chloro-2-[(1-cyclopropyl-5-methyl-1H-pyrazol-4-yl)amino]quinazolin-7-yl}pyrrolidin-1-yl)-2-hydroxypropan-1-one] | 8.54 | –
Cc1c(Nc2ncc3cc(Cl)c(C4CCN(CC(O)C(F)(F)F)CC4)cc3n2)cnn1C1CC1 (single isomer, unassigned) [Ex-4.12, (R) or (S) 3-(4-(6-chloro-2-((1-cyclopropyl-5-methyl-1H-pyrazol-4-yl)amino)quinazolin-7-yl)piperidin-1-yl)-1,1,1-trifluoropropan-2-ol] | – | < 0.631
CN1CC[C@H](c2cc3nc(Nc4cnn(C5CC5)c4Cl)ncc3cc2Cl)[C@@H](F)C1 (single isomer, unassigned) [Ex-4.40, (3S,4S) or (3R,4R) 6-chloro-N-(5-chloro-1-cyclopropyl-1H-pyrazol-4-yl)-7-(3-fluoro-1-methylpiperidin-4-yl)quinazolin-2-amine] | >9.20 | –
Cc1c(Nc2ncc3cc(Cl)c(C4CCN(C[C@@H](O)c5cccc(F)c5)CC4)cc3n2)cnn1C1CC1 [Ex-4.196, (1S)-2-(4-{6-chloro-2-[(1-cyclopropyl-5-methyl-1H-pyrazol-4-yl)amino]quinazolin-7-yl}piperidin-1-yl)-1-(3-fluorophenyl)ethan-1-ol] | 8.87 | –
Cc1c(Nc2ncc3cc(Cl)c(C4CCN(C5CCCC5(F)F)CC4)cc3n2)cnn1C1CC1 (single isomer, unassigned) [Ex-1.21, (S) or (R) 6-chloro-N-(1-cyclopropyl-5-methyl-1H-pyrazol-4-yl)-7-[1-(2,2-difluorocyclopentyl)piperidin-4-yl]quinazolin-2-amine] | – | 1.86
CN(C)CC12CC(n3cc(Nc4ncc5cc(Cl)c(C6CCN(C7(C)COC7)CC6)cc5n4)cn3)(C1)C2 [Ex-2.59, 6-chloro-N-(1-{3-[(dimethylamino)methyl]bicyclo [1.1.1]pentan-1-yl}-1H-pyrazol-4-yl)-7-[1-(3-methyloxetan-3-yl)piperidin-4-yl]quinazolin-2-amine] | >9.20 | –
N#CCCN1CCC(c2cc3nc(Nc4cnn(CC(F)F)c4Cl)ncc3cc2Cl)CC1 [Ex-4.95, 3-[4-(6-chloro-2-{[5-chloro-1-(2,2-difluoroethyl)-1H-pyrazol-4-yl]amino}quinazolin-7-yl)piperidin-1-yl]propanenitrile] | >9.20 | –
Cc1cc2cnc(Nc3cnn(C4CC4)c3Cl)nc2cc1[C@@H]1CCN(C2COC[C@@H]2O)C[C@H]1F (single isomer, unassigned) [Ex-4.135, (3S,4S)(3S,4S) or (3S,4S)(3R,4R) or (3R,4R)(3S,4S) or (3R,4R)(3R,4R) 4-(4-{2-[(5-chloro-1-cyclopropyl-1H-pyrazol-4-yl)amino]-6-methylquinazolin-7-yl}-3-fluoropiperidin-1-yl)oxolan-3-ol] | >9.20 | –
Cc1cc2cnc(Nc3cnn(C)c3Cl)nc2cc1[C@@H]1CCN([C@H]2COC[C@H]2O)C[C@H]1F (single isomer, unassigned) [Ex-4.260, (3S,4S)(3S,4S) or (3S,4S)(3R,4R) or (3R,4R)(3S,4S) or (3R,4R)(3R,4R) 4-(4-(2-((5-chloro-1-methyl-1H-pyrazol-4-yl)amino)-6-methylquinazolin-7-yl)-3-fluoropiperidin-1-yl)tetrahydrofuran-3-ol] | 8.00 | –
O[C@H]1COC[C@H]1N1CC[C@@H](c2cc3nc(Nc4cnn(C56CC(F)(C5)C6)c4Cl)ncc3cc2Cl)[C@H](F)C1 (single isomer, unassigned) [Ex-4.231, (3S,4S)(3S,4S) or (3S,4S)(3R,4R) or (3R,4R)(3S,4S) or (3R,4R)(3R,4R) 4-[4-(6-chloro-2-{[5-chloro-1-(3-fluorobicyclo[1.1.1]pentan-1-yl)-1H-pyrazol-4-yl]amino}quinazolin-7-yl)-3-fluoropiperidin-1-yl]oxolan-3-ol] | >9.20 | –

— patent US12540131B2 (Merck Sharp & Dohme LLC, priority 2019, dated 2026)
